Test system: Chlorella sp. ATCC 7516
Assay: Algal efficacy testing of dry paint films (modified ASTM 5589, 6-well plates)
Type: cell-based
Experimental: These paints were then diluted with a biocide free acrylic/silicone based paint and mixed to prepare targeted concentrations of biocide combinations for the testing. The total biocides concentrations obtained were 125, 250, 500, 1000, 2000 and 5000 ppm. After biocides addition or dilution, the paints were mixed 90 seconds with the horse power shaker (AXEL 75M3372/Agitateur SO-10MI) until uniformity was achieved. […] After one day, the paints were applied to Schleicher & Schuell filter paper at 280 μm wet film thickness and dried for 3 days at room temperature avoiding direct exposure to sunlight. Square discs (1.8 cm×1.8 cm) were cut out from each panel and were used as the substrate for algal efficacy tests. This sample size allowed for an agar border when the sample disc was placed into the well of the test plate.
Algal efficacy was tested according to modified ASTM 5589 which is a standard accelerated test method for determining resistance of various coatings (including paints) to algal defacement. To accommodate for high-throughput screening, this method was scaled down from petri plates to 6-well plates. Bold Modified Basal Freshwater Nutrient Solution was used as growth medium for the algal culture and Bold's agar was used for the efficacy testing. A single coupon was placed with a pair of sterile forceps at the center of the agar plug (on top) with the painted surface facing upwards. The algal inoculum was prepared by diluting an exponentially growing culture of Chlorella sp. to 1×10^6 cfu/ml.
Each well that contains a tested coupon was inoculated with 1750 μl of algal suspension (1×10^6 cfu/ml) making sure that the whole surface (paint film as well as the agar surrounding it) was evenly covered. The plates were incubated at room temp (21° C.-25° C.) with cyclic exposure to 14 hours fluorescent light followed by 10 hours darkness, for a period of three weeks.
At the end of the incubation period the samples were scored for percent inhibition regarding color intensity compared to the blank sample
The SI is calculated based on F. C. Kull et. […]

O=c1[nH]c2c(c(=O)n1C1CCCCC1)CCC2 [LENACIL, 3-Cyclohexyl-6,7-dihydro-1H-cyclopentapyrimidine-2,4-(3H,5H)-dione]
% inhibition (Chlorella, total conc 1′000 ppm in paint, three weeks, colour intensity vs blank): 90%

O=c1[nH]sc2ccccc12 [BIT, 1,2-benzisothiazol-3(2H)-one]
inhibition at 5000 ppm (504 h, Chlorella, total conc 5000 ppm in paint, three weeks, colour intensity vs blank): 95%
Total conc, ppm (lowest total biocide concentration in paint reaching pass level of 75% inhibition) (Chlorella sp., acrylic/silicone paint film on filter paper, three weeks incubation, pass level ≥75% inhibition): 5000 ppm

Source: patent US20190269132A1 (ROHM AND HAAS COMPANY, priority 2016, published 2019)
